Measured values as given in article PMC9598407, “Identification of Staphylococcus aureus Penicillin Binding Protein 4 (PBP4) Inhibitors” (Antibiotics, 2022).
pIC50: −log10 of the molar value.

Legend:
S. aureus USA300 [1] = assay: Triton X-100 susceptibility growth study; assay type: cell-based, Staphylococcus aureus; conditions: wild type USA300, 12.5 µM compound
Description: Cheung and colleagues have shown that S. aureus tolerance to Triton X-100 is mediated by PBP4 [25]. More directly, wild type cells are tolerant of 0.1% of the detergent, while pbp4 mutant cells are not. Accordingly, as a first test of whether 9314848 may affect PBP4’s cellular function, we evaluated whether compound treated wild type cells phenocopy the growth defect of pbp4 mutant cells in the presence of 0.1% triton X-100 (Figure 3B).
The effect of putative PBP4 inhibitors on bacterial growth in media supplemented with Triton X-100 was measured, as previously described. […] Cell suspensions were incubated at 37 °C with aeration and cell density (OD600nm) was recorded hourly for a total of 7–8 h.

[2] = target: recombinant Bacillus subtilis PBP4 (Bacillus subtilis, UniProt P40750); assay: BOCILLIN FL fluorescence polarization displacement assay, PBP4; assay type: binding
Method: To more directly evaluate whether 9314848 is likely to affect PBP4 function, the compound’s ability to bind recombinant PBP4 was measured using BOCILLIN FL fluorescence polarization displacement assays. The premise for the assay is that the fluorescence polarization of the fluorescently labeled β-lactam, penicillin V (BOCILLIN FL), will increase upon binding to its cognate target (i.e., PBP4). Further, compounds that bind PBP4 and inhibit its function would impede BOCILLIN FL binding thereby allowing us to assess the protein binding affinity of 9314848 using a simple fluorescence reduction assay.
To determine whether the assay is amenable to measuring the binding properties of a compound that is known to bind PBP4 vs. a compound that is not expected to bind the protein we performed fluorescence polarization assays in which PBP4 was preincubated with either the β-lactam ampicillin, or the aminoglycoside kanamycin.
A dose response study was conducted (Figure 4B) in which PBP4 was preincubated with 0, 3.125, 6.25, 12.5, 25, or 50 µM of ampicillin, kanamycin, or 9314848.
First, fluorescence polarization assays were performed as previously described, but with minor modifications. Briefly, the indicated amount of the putative PBP4 inhibitor or control antibiotic was incubated with 1 µM recombinant B. subtilis PBP4 or S. aureus PBP2a in potassium phosphate buffer (40 mM K2HPO4 and 10 mM KH2PO4) for 1 h in black 96-well microtiter plates (Corning Life Sciences, Corning, NY, USA). Following incubation, 1 µM (final concentration) BOCILLIN FL penicillin was added, and the mixture was incubated for 30 min. BOCILLIN FL fluorescence polarization was measured at (495 nm excitation and 545 nm emission) in a SpectraMax M5 multimode plate reader (Molecular Devices, San Jose, CA, USA). […] The resulting data were plotted as percentage BOCILLIN FL binding inhibition = (T/U) × 100; T = FL polarization of ((PBP4+ BOCILLIN FL) − (PBP4+ BOCILLIN FL + inhibitor compound)), U = FL polarization of ((PBP4 + BOCILLIN FL) − (BOCILLIN FL)). Second, gel electrophoresis and fluorescence detection was used to measure BOCILLIN FL labeling of PBP4 treated with the known PBP4 inhibitor cefoxitin (positive control), kanamycin (negative control) or 9314848 (test compound), as previously described but with minor modifications. Briefly, 1 µM of recombinant PBP4 was mixed with 0, 50, 500, 2000, or 5000 µM 9314848 or control antibiotic in 50 mM phosphate buffer (pH 7.4) and incubated at 37 °C for 30 min. Next 40 μM of BOCILLIN FL was added to the reaction mixture and incubated for an additional 30 min at 37 °C. Reactions were stopped by adding 5× SDS-PAGE gel loading dye, heated at 100 °C for 3 min and separated by electrophoresis in 12% SDS-PAGE (2 h, 120 Volts). BOCILLIN FL labeled PBP4 was imaged at λ = 365 nm using a BioRad Gel Doc EZ Imaging system and the gel was then subsequently stained with Bio-safe Coomassie Brilliant Blue stain (BioRad, Hercules, CA, USA) to measure the amount of protein present in each reaction condition and analyzed using NIH-ImageJ software. The percent BOCILLIN FL binding was calculated by first normalizing the protein present in each reaction condition to that of untreated control and subsequently applying each reaction’s protein normalization factor to each reaction’s fluorescent signal. The percentage BOCILLIN FL binding inhibition was then calculated as the normalized band intensity of antibiotic/compound treated sample as compared to the control sample (PBP4 + BOCILLIN FL in the absence of compound).

S. aureus USA300 [3] = assay: µSiM-CA membrane transmigration; assay type: cell-based, Staphylococcus aureus
Method: Thus, we tested 9314848 for its ability to eliminate S. aureus migration through µSiM-CA membrane pores. […] Conversely, the USA300∆pbp4 strain was unable to efficiently transverse the membrane, verifying that PBP4 is required for S. aureus membrane transmigration, as previously reported. To evaluate whether 9314848 is capable of eliminating PBP4-associated S. aureus µSiM-CA membrane migration, 1 × 10^7 CFU wild type cells were incubated with 0, 3.125, 6.25, 12.5, or 25 µM of the compound for 2 h then applied to the top chamber of the device. Following incubation, cells in the top and bottom chambers were enumerated.
The effect of PBP4 inhibitors on S. aureus migration through 500 nm nanoporous membranes modeling the orifices of osteocyte lacuno-canalicular networks was investigated using a µSiM-CA device, as previously described. Briefly, µSIM-CA systems were fabricated by SiMPore Inc. (West Henrietta, NY, USA) to include a top and a bottom chamber that were separated by 400 nm thick silicon nitride membrane containing an array of 500 nm pores, allowing for quantification of bacteria that migrate from the apical (top) well to the basal (bottom) well. To measure bacterial migration through the device membrane, S. aureus strains USA300 or USA300∆pbp4 were grown overnight at 37 °C with aeration, diluted (1:100) in fresh MH media, and then grown to mid-exponential phase (OD600nm = 0.2) in the presence or absence of putative PBP4 inhibitor for approximately 2 h at 37 °C shaking with aeration. A total of 100 µL of cell mixture (~1 × 10^7 CFU) was transferred into the top reservoir of the device and incubated for 6 h at 37 °C. A total of 10 µL of media from the apical and basal reservoirs was collected, serial diluted in 0.8% NaCl, and plated on MH agar plates for bacterial enumeration.

recombinant Bacillus subtilis PBP4, sequence (P40750 22-624): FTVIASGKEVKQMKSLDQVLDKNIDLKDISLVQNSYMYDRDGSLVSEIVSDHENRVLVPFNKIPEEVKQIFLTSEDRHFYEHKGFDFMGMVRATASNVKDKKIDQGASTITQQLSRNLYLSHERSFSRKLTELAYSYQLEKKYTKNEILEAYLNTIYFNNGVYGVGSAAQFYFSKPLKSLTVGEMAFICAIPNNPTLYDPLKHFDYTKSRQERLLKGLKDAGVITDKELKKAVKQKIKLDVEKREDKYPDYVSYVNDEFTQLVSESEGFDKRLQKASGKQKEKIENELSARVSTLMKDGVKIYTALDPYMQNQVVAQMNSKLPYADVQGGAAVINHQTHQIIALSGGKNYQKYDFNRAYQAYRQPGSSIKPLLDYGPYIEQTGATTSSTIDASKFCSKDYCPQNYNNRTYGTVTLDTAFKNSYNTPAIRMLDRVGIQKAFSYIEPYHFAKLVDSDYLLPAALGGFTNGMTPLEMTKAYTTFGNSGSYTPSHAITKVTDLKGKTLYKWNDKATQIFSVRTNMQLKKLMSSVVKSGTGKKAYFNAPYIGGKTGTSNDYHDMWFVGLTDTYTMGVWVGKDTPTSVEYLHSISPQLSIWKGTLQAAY

## CC1CCN(C(=O)c2cccc(NC(=O)Nc3ccc(Cl)cc3)c2)CC1 [Compound 9314848]
S. aureus USA300 [1]; 0.1% Triton X-100
  Growth in the presence of Triton X-100: exhibited growth defect
S. aureus USA300 [1]; no Triton X-100
  Growth in the absence of detergent: did not display a growth defect
[2]; 3.125 µM and 6.25 µM
  Binding to PBP4 at low concentration: Minimal binding
[2]; 50 µM compound, fluorescence polarization
  Reduction of BOCILLIN FL binding to PBP4: ~ 66%
[2]; 50 µM, 1 µM PBP4
  Effect of preincubation on BOCILLIN FL binding to PBP4 (fluorescence polarization): limited fluorescence polarization
[2]; fluorescence polarization dose response 0-50 µM, read-out: IC50, PBP4 BOCILLIN FL binding inhibition
  pIC50: 4.87
S. aureus USA300 [3]; 0-25 µM compound
  Viability of cells within the top/treatment chamber: did not affect the viability
S. aureus USA300 [3]; concentrations greater than 6.25 µM (2.5 µg/mL)
  Effect on S. aureus membrane transmigration: completely inhibited
S. aureus USA300 [3]; ≤3.125 µM
  Effect on S. aureus membrane transmigration: no effect
